Test results taken from paper PMC5397059, “Design, synthesis and structure-activity relationship study of wollamide B; a new potential anti TB agent” (PLoS ONE, 2017).
Values after ≈ are worked out from the molar mass of the structure shown. Read-outs that look alike come from different tables or passages of the source. Non-standard residues stand in square brackets, D forms with d. Residues, ends and D or L forms follow the SMILES beside them. *: point of attachment. NMeN = CN[C@@H](CC(N)=O)C(=O)O; NMeL = CN[C@@H](CC(C)C)C(=O)O; dNMeL = CN[C@H](CC(C)C)C(=O)O; NMeV = CN[C@H](C(=O)O)C(C)C; dOrn = NCCC[C@@H](N)C(=O)O; tBu = CC(C)(C)*

Key:
Chrom logD assay = format: physicochemical; details: pH 7.4, read-out: Log D
Description: The Chromatographic Hydrophobicity Index (CHI) values were measured using a reversed phase HPLC column (50 x 2 mmx 3 μMGemini NX C18, Phenomenex, UK) with fast acetonitrile gradient at starting mobile phase of 100% pH = 7.4 buffer. CHI values are derived directly from the gradient retention times by using a calibration line obtained for standard compounds. The CHI value approximates to the volume % organic concentration when the compound elutes. CHI is linearly transformed into ChromlogD by the formula: ChromlogD=0.0857CHI−2.00
The average error of the assay is ±3 CHI unit or ±0.25 ChromlogD.

[1] = Intrinsic clearance (CLint) assay, mouse liver microsomes; format: in vitro ADME; details: for % LBF Mouse: liver blood flow; for CLint Mouse: mouse liver microsomes; for half-life at 0.5 µM: mouse, pooled mouse liver microsomes, pH 7.4, read-out: Microsomal t1/2 Mouse; for CLpred Mouse: predicted metabolic clearance
Description: (§1) Pooled mouse and human liver microsomes are purchased from Xenotech. Microsomes (final protein concentration 0.5 mg/mL, MgCl2 (final concentration = 5 mM) and test compound (final substrate concentration = 0.5] M; final DMSO concentration = 0.5%) in 0.1 M phosphate buffer pH 7.4 are pre-incubated at 37°C prior to the addition of NADPH (final concentration = 1 mM) to initiate the reaction. The final incubation volume is 600 μL.
(§2) Control incubation is included for each compound tested where 0.1 M phosphate buffer pH 7.4 is added instead of NADPH (minus NADPH). One control compound is included with each species. All incubations are performed singularly for each test compound. Each compound is incubated for 45 minutes and samples (100 μL) of incubate are taken at 0, 5, 15, 30 and 45 min. The control (minus NADPH) is sampled at 30 min only. The reactions are stopped by the addition of sample to 200 μL Acetonitrile: Methanol 3:1 containing internal standard. The terminated samples are centrifuged at 2,500 rpm for 20 min at 4°C to precipitate the protein. Quantitative analysis: following protein precipitation, the samples were analyzed using specific LC-MS/MS conditions. Data analysis: from a plot of ln peak area ratio (compound peak area/internal standard peak area) against time, the gradient of the line was determined. Subsequently, half-life and intrinsic clearance were calculated using the equations below: Eliminationrateconstant(K)=(−gradient) Halflife(t1/2)(min)=0.693/K Cli(mL/min/gprotien)=V×0.693/t1/2 WhereV=Incubationvolume(mL/gmicrosomalprotien)

[2] = Chemi-Luminescent Nitrogen Detection (CLND) kinetic solubility assay; format: physicochemical; details: phosphate buffered saline, pH 7.4; kinetic aqueous solubility by CLND; read-out: Solubility
Description: GSK in-house kinetic solubility assay: 5 μL of 10mM DMSO stock solution diluted to 100 uL with pH7.4 phosphate buffered saline, equilibrated for 1 hour at room temperature, filtered through Millipore Multiscreen HTS-PCF filter plates (MSSL BPC).
The filtrate is quantified by suitably calibrated flow injection CLND. The standard error of the CLND solubility determination is ±30 μM, the upper limit of the solubility is 500 μM when working from 10 mM DMSO stock solution.

human serum albumin = human serum albumin (Homo sapiens, UniProt P02768); assay: Human serum albumin (HSA) binding assay; format: in vitro ADME; details: human serum albumin binding
Description: HSA binding assay was performed according to the method described by Valko K, et al. The basic principle of the measurements is the determination of gradient retention times of compounds on immobilized HSA column and converting these retention times to the appropriate property values using calibration. The peaks are detected and identified by UV. Calibration sets of compounds are measured before each run for which the HSA binding values are known. The retention times of the calibration set of compounds are plotted against these known values. The slope and the intercept of the obtained straight lines are used to calculate the HSA binding for the unknown compounds.

[3] = Artificial membrane permeability assay; format: in vitro ADME; details: PAMPA, pH 7.4; passive artificial membrane permeability; read-out: Permeability
Description: A 8% L-a-phosphatidylcholine (EPC) in 1% cholesterol decane solution and a 1.8% EPC in cholesterol decane solution were prepared. The lipid solution was then aliquoted into 4 mL capped vials, sealed with parafilm and stored in-20°Cfreezer. The lipid solution was then transferred from 4 mL vial into 96-well half area plate (130μL/well) for daily assay usage. An additional 50 mM phosphate buffer with 0.5% encapsin, pH at 7.4 was prepared. The assay was run by the Biomek FX and Biomek software. The assay procedure is written under the Biomek software. For one batch assay, it can test two 96-well sample plates with at least one standard on each sample plate. The total assay time was about 4 hours. 3.5 μL of lipid solution were added to the filler plate, shaken for 12 seconds, and 250 μL of buffer were added to donor side and 100 μL to the receiver side. The assay plate was shaken for 45 min before adding the compounds. The test compounds (2.5 μL) were added to the donor side. The assay was run as replicates: Assay plates1 and 2 tested the sample plate 1; assay plates 3 and 4 tested the sample plate 2. The assay plates were then incubated and shaken for 3 hours at room temperature.
The assay samples were transferred to the HPLC analysis plates and 100 μL of receiver solution were aspirated and transferred to the receiver for analysis. Similarly, another 100 μL from the donor solution were transferred to the donor analysis plate.
Compound concentration was measured by HPLC at different time-points and permeability was established as nm/sec.

[4] = Intrinsic clearance (CLint) assay, human liver microsomes; format: in vitro ADME; details: for CLint Human: human liver microsomes; for half-life at 0.5 µM: human, pooled human liver microsomes, pH 7.4, human liver microsomes, read-out: Microsomal t1/2 Human; for % LBF Human: liver blood flow; for CLpred Human: predicted metabolic clearance
Description: as §1, §2

[5] = amide bond, 18-membered ring, HATU/HOBt/DIEA
[6] = reversed phase HPLC column (Gemini NX C18)

human serum albumin, sequence (P02768 25-609): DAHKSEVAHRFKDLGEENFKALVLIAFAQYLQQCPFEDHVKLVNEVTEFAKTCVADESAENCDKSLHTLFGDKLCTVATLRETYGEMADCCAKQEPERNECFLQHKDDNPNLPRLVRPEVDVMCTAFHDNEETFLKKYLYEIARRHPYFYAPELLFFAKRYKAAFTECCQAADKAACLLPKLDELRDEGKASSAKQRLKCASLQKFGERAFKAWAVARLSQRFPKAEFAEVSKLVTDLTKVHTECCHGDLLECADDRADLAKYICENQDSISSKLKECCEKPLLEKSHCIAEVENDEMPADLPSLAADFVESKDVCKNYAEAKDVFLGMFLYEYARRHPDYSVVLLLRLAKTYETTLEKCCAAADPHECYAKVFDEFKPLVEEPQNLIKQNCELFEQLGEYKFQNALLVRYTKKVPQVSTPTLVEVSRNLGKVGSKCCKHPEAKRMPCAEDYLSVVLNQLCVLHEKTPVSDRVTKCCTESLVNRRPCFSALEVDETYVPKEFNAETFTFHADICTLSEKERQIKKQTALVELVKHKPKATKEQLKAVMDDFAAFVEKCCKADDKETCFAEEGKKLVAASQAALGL

| Molecule | chromatographic logD (Chrom logD assay; [6]) | % LBF Mouse [1] [%] | CLint Mouse [1] [mL/min/g tissue] | half-life at 0.5 µM [1] [h] | CLpred Mouse [1] [mL/min/kg] | solubility kinetic at 1 h [2] [µg/mL] | % HSA (human serum albumin) [%] | Papp at 3 h [3] [×10⁻⁶ cm/s] | CLint Human [4] [mL/min/g tissue] | half-life at 0.5 µM [4] [h] | % LBF Human [4] [%] | CLpred Human [4] [mL/min/kg] | chromatographic logD (Chrom logD assay) | ring closure, isolated yield ([5]; from H-Trp(Boc)-Leu-dMeLeu-Val-MeAsn(Trt)-dOrn(Boc)-OH) [%] | ring closure, isolated yield ([5]; from H-Val-MeAsn(Trt)-dOrn(Boc)-Trp(Boc)-MeLeu-dLeu-OH) [%] | ring closure, isolated yield [5] [%] |
| --- | --- | --- | --- | --- | --- | --- | --- | --- | --- | --- | --- | --- | --- | --- | --- | --- |
| CC[C@H](C)[C@@H]1NC(=O)[C@@H](CC(C)C)NC(=O)[C@H](CC(C)C)NC(=O)[C@H](Cc2c[nH]c3ccccc23)NC(=O)[C@@H](CCCN)NC(=O)[C@H](CO)NC1=O [Compound 10c] (cyclo(IS[dOrn]WL[dL])) | 2.16 | <16.3 | <0.48 | > 2.31 | <20.50 | ≥ 228 | 86.47 | < 1 | 9.77 | 0.0938 | 93.00 | 16.70 |  |  |  |  |
| CC[C@H](C)[C@@H]1NC(=O)[C@@H](CC(C)C)NC(=O)[C@H](CC(C)C)NC(=O)[C@H](Cc2c[nH]c3ccccc23)NC(=O)[C@@H](CCCN)NC(=O)[C@H](COC(C)(C)C)NC1=O [Compound 11c] (cyclo(IS(tBu)[dOrn]WL[dL])) | 3 | <16.3 | <0.48 | > 2.31 | <20.50 | 202 (≈ 258 µM) | 92.68 | < 0.3 | 3.33 | 0.276 | 81.90 | 14.70 |  |  |  |  |
| CC[C@H](C)[C@@H]1NC(=O)[C@@H](CC(C)C)NC(=O)[C@H](CC(C)C)NC(=O)[C@H](Cc2c[nH]c3ccccc23)NC(=O)[C@@H](CCCNC(=N)N)NC(=O)[C@H](CC(N)=O)NC1=O [Compound 13c] (cyclo(IN[dR]WL[dL])) |  | 29.00 | 1.01 | 1.05 | 36.60 | ≥ 189 | 87.55 | 1.1 | 7.44 | 0.123 | 91.01 | 16.38 | 2.05 |  |  |  |
| COc1ccc(C[C@@H]2NC(=O)[C@@H](CCCN)NC(=O)[C@H](CC(N)=O)NC(=O)[C@H](C(C)C)NC(=O)[C@@H](CC(C)C)NC(=O)[C@H](CC(C)C)NC2=O)cc1 [Compound 15c] (cyclo(L[dL]VN[dOrn]Y(Me))) | 1.73 | 24.00 | 0.78 | 1.43 | 30.20 | ≥ 189 | 46.55 | < 1 | <0.40 | > 2.31 | <35.08 | <6.35 |  |  |  |  |
| CC(C)C[C@@H]1NC(=O)[C@H](Cc2c[nH]c3ccccc23)NC(=O)[C@@H](CCCN)NC(=O)[C@H](CC(N)=O)NC(=O)[C@H](C(C)C)N(C)C(=O)[C@@H](CC(C)C)NC1=O [Compound 22c] (cyclo(L[dL][NMeV]N[dOrn]W)) | 1.96 | <16.3 | <0.48 | > 2.31 | <20.50 | ≥ 153 | 73.98 | < 1 | <0.40 | > 2.31 | <35.08 | <6.35 |  |  |  |  |
| CC(C)C[C@H]1NC(=O)[C@H](CC(C)C)N(C)C(=O)[C@H](Cc2c[nH]c3ccccc23)NC(=O)[C@@H](CCCN)NC(=O)[C@H](CC(N)=O)N(C)C(=O)[C@H](C(C)C)NC1=O [Compound 23c] (cyclo([NMeL][dL]V[NMeN][dOrn]W)) | 2 | 30.00 | 1.06 | 1.05 | 37.80 | ≥ 174 | 82.21 | < 1 | 3.19 | 0.287 | 81.29 | 14.63 |  |  |  |  |
| CC(C)C[C@H]1NC(=O)[C@H](CC(C)C)N(C)C(=O)[C@H](Cc2c[nH]c3ccccc23)NC(=O)[C@@H](CCCN)NC(=O)[C@H](CC(N)=O)NC(=O)[C@H](C(C)C)N(C)C1=O [Compound 24c] (cyclo(N[dOrn]W[NMeL][dL][NMeV])) | 2.18 | 42.0 | 1.79 | 0.261 | 52.90 | ≥ 217 | 87.02 | < 1 | 3.51 | 0.621 | 82.70 | 14.90 |  |  |  |  |
| CC(C)C[C@@H]1NC(=O)[C@H](Cc2c[nH]c3ccccc23)NC(=O)[C@@H](CCCN)NC(=O)[C@H](CC(N)=O)N(C)C(=O)[C@H](C(C)C)NC(=O)[C@@H](CC(C)C)N(C)C1=O [Compound 25c] (cyclo(L[dNMeL]V[NMeN][dOrn]W)) | 2.25 | <16.3 | <0.48 | > 2.31 | <20.50 | ≥ 221 | 82.97 | < 1 | <0.40 | > 2.31 | <35.08 | <6.35 |  |  |  |  |
| CC(C)C[C@@H]1NC(=O)[C@H](Cc2cn(C(=O)OC(C)(C)C)c3ccccc23)NC(=O)[C@@H](CCCNC(=O)OC(C)(C)C)NC(=O)[C@H](CC(=O)NC(c2ccccc2)(c2ccccc2)c2ccccc2)N(C)C(=O)[C@H](C(C)C)NC(=O)[C@@H](CC(C)C)N(C)C1=O [cyclo(Trp(Boc)-Leu-N-Me-D-Leu-Val-N-Me-Asn(Trt)-D-Orn(Boc))] |  |  |  |  |  |  |  |  |  |  |  |  |  | 60 |  |  |
| CC(C)C[C@H]1NC(=O)[C@H](CC(C)C)N(C)C(=O)[C@H](Cc2cn(C(=O)OC(C)(C)C)c3ccccc23)NC(=O)[C@@H](CCCNC(=O)OC(C)(C)C)NC(=O)[C@H](CC(=O)NC(c2ccccc2)(c2ccccc2)c2ccccc2)N(C)C(=O)[C@H](C(C)C)NC1=O [cyclo(Val-N-Me-Asn(Trt)-D-Orn(Boc)-Trp(Boc)-N-Me-Leu-D-Leu)] |  |  |  |  |  |  |  |  |  |  |  |  |  |  | 80 |  |
| cyclo(D-Phe(4-Cl)-D-Orn(Boc)-Asn(Trt)-Val-D-Leu-Leu) |  |  |  |  |  |  |  |  |  |  |  |  |  |  |  | 43 |
